{"source": "paper PMC6704710", "about": "“Preclinical evaluation of 3D185, a novel potent inhibitor of FGFR1/2/3 and CSF-1R, in FGFR-dependent and macrophage-dominant cancer models” (Journal of Experimental & Clinical Cancer Research : CR, 2019)", "assay_in_all_cases": "Eurofins kinase panel", "assay_type_in_all_cases": "biochemical", "key": {"Ret(V804M)(h)": {"target": "T1, Ret(V804M)(h) (Homo sapiens, UniProt P07949, V804M)", "T1 construct": "purchased Eurofins (KinaseProfiler)", "T1 sequence (P07949 29-1114 V804M)": "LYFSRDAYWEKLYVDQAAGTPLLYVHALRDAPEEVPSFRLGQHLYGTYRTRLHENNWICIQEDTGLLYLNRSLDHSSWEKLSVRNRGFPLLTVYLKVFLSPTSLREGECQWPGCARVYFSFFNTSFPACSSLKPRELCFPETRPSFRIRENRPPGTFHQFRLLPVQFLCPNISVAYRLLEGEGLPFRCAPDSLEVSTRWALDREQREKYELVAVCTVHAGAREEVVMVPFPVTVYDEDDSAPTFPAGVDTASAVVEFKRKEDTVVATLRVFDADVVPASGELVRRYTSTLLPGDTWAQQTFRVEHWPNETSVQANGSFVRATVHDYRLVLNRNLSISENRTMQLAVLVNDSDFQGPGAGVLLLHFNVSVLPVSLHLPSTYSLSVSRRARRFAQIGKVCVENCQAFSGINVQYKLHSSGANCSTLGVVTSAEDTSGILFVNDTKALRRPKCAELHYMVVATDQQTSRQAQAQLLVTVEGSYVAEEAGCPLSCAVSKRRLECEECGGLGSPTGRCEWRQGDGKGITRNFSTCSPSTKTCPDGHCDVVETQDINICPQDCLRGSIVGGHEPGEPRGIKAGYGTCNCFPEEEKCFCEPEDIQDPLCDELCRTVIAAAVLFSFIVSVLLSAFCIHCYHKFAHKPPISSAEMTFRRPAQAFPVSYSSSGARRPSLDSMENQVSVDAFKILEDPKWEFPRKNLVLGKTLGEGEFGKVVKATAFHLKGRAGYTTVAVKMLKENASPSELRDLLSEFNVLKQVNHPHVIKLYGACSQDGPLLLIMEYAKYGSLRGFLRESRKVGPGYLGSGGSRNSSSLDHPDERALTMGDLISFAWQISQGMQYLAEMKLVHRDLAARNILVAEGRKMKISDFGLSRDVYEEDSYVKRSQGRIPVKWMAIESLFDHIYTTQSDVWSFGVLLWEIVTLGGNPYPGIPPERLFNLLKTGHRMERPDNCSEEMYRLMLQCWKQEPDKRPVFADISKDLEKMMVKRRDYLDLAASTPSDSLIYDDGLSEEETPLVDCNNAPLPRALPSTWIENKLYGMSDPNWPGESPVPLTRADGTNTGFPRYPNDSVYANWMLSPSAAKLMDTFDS", "details": "read-out: Inhibition rate (%)"}, "SLK(h)": {"target": "T2, SLK(h) (Homo sapiens, UniProt Q9H2G2)", "T2 construct": "purchased Eurofins (KinaseProfiler)", "details": "read-out: Inhibition rate (%)"}, "CK1(y)": {"test_system": "CK1(y)"}, "SRPK2(h)": {"target": "T3, SRPK2(h) (Homo sapiens, UniProt P78362)", "T3 construct": "purchased Eurofins (KinaseProfiler)", "details": "read-out: Inhibition rate (%)"}, "MARK4(h)": {"target": "T4, MARK4(h) (Homo sapiens, UniProt Q96L34)", "T4 construct": "purchased Eurofins (KinaseProfiler)", "T4 sequence (Q96L34 1-752)": "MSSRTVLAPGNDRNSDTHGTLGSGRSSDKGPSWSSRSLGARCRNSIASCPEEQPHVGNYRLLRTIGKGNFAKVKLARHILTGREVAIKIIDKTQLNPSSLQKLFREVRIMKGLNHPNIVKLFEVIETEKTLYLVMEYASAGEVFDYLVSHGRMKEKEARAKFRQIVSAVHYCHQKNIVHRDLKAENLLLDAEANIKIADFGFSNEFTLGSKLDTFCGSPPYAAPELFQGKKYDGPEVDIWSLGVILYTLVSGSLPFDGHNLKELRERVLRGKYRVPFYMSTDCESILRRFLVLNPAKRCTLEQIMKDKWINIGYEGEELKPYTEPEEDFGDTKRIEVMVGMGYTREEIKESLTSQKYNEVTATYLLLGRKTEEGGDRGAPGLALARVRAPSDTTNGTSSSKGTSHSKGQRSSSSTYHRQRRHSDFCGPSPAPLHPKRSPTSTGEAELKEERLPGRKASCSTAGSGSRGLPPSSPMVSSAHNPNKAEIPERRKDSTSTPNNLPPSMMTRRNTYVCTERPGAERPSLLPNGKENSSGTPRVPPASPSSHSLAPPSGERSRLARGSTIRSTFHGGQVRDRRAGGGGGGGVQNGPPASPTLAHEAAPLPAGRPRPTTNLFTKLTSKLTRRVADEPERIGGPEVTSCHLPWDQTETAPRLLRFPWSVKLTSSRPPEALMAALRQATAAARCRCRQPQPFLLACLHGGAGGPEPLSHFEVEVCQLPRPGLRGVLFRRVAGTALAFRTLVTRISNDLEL", "details": "read-out: Inhibition rate (%)"}, "DYRK1A(h)": {"target": "T5, DYRK1A(h) (Homo sapiens, UniProt Q13627)", "T5 construct": "purchased Eurofins (KinaseProfiler)", "details": "read-out: Inhibition rate (%)"}, "ALK(h)": {"target": "T6, ALK(h) (Homo sapiens, UniProt Q9UM73)", "T6 construct": "purchased Eurofins (KinaseProfiler)", "T6 sequence (Q9UM73 19-1620)": "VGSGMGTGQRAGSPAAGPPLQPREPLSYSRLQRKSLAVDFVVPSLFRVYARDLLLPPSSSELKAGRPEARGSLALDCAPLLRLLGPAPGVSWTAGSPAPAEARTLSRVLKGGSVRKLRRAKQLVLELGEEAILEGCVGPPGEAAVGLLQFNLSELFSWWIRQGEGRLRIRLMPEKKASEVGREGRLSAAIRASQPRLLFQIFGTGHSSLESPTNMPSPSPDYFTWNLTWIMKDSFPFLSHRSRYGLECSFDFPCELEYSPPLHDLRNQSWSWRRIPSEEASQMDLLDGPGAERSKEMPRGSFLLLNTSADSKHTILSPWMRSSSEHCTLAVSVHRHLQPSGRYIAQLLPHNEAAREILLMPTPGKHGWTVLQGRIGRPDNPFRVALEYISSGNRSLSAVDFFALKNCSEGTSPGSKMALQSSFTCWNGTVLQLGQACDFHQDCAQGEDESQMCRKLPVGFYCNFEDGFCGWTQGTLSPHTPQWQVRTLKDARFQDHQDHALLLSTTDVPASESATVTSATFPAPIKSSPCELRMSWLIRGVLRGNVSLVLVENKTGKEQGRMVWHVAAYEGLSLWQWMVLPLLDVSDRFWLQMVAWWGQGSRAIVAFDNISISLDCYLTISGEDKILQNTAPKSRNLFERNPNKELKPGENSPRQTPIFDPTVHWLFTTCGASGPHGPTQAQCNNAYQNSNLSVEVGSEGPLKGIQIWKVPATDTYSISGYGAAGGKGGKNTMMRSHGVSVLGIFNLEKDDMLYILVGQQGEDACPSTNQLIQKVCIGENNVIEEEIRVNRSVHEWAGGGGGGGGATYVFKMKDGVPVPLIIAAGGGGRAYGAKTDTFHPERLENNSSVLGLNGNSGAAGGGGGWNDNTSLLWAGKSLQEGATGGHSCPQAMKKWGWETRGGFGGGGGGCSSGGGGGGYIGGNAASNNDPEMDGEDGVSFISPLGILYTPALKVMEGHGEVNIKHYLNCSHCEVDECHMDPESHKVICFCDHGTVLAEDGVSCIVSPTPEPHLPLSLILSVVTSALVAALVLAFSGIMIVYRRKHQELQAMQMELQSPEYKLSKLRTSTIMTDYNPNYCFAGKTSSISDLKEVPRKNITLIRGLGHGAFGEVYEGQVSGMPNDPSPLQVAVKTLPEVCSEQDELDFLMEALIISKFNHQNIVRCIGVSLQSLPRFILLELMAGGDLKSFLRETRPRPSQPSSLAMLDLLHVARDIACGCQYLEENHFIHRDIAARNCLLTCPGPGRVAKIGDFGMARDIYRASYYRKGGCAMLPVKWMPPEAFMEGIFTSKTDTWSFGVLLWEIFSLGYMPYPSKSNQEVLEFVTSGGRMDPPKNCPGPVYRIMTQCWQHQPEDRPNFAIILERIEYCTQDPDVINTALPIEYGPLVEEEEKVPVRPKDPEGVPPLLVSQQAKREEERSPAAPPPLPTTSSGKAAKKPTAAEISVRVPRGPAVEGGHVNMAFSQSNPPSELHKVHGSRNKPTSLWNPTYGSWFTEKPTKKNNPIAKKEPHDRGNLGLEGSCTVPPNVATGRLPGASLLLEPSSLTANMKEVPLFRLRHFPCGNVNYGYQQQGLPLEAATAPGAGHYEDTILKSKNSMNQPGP", "details": "read-out: Inhibition rate (%)"}, "TBK1(h)": {"target": "T7, TBK1(h) (Homo sapiens, UniProt Q9UHD2)", "T7 construct": "purchased Eurofins (KinaseProfiler)", "T7 sequence (Q9UHD2 1-729)": "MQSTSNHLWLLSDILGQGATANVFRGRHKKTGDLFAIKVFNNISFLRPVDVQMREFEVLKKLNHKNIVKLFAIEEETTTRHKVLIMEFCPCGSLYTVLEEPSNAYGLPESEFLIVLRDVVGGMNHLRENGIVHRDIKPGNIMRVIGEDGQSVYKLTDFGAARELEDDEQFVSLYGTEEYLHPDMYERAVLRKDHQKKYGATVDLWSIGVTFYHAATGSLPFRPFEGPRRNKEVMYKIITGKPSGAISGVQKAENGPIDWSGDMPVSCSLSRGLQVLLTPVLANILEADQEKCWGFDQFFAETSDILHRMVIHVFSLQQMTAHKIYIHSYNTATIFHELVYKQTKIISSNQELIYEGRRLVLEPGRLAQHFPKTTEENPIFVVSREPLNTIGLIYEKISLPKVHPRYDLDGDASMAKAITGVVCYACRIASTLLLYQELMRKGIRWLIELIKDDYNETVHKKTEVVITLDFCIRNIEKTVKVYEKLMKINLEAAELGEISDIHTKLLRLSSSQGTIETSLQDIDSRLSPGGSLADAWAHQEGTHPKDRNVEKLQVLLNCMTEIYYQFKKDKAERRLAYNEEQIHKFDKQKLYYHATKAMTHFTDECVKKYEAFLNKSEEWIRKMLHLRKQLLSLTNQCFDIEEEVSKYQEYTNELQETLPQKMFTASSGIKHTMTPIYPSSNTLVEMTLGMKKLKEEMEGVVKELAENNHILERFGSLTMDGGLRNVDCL", "details": "read-out: Inhibition rate (%)"}, "STK32A(h)": {"target": "T8, STK32A(h) (Homo sapiens, UniProt Q8WU08)", "T8 construct": "purchased Eurofins (KinaseProfiler)", "details": "read-out: Inhibition rate (%)"}, "CK1γ1(h)": {"target": "T9, CK1γ1(h) (Homo sapiens, UniProt Q9HCP0)", "T9 construct": "purchased Eurofins (KinaseProfiler)", "details": "read-out: Inhibition rate (%)"}, "Ret(h)": {"target": "T10, Ret(h) (Homo sapiens, UniProt P07949)", "T10 construct": "purchased Eurofins (KinaseProfiler)", "T10 sequence (P07949 29-1114)": "as the sequence (P07949 29-1114 V804M) above, with M776V counted along it", "details": "read-out: Inhibition rate (%)"}, "CaMKIIα(h)": {"target": "T11, CaMKIIα(h) (Homo sapiens, UniProt Q9UQM7)", "T11 construct": "purchased Eurofins (KinaseProfiler)", "details": "read-out: Inhibition rate (%)"}, "NEK7(h)": {"target": "T12, NEK7(h) (Homo sapiens, UniProt Q8TDX7)", "T12 construct": "purchased Eurofins (KinaseProfiler)", "details": "read-out: Inhibition rate (%)"}, "ATR/ATRIP(h)": {"target": "T13, ATR/ATRIP(h) (Homo sapiens, UniProt Q13535)", "T13 construct": "purchased Eurofins (KinaseProfiler)", "details": "read-out: Inhibition rate (%)"}}, "data": [{"smiles": "COc1cc(OC)c(Cl)c(-c2ccc3c(NC(=O)c4ccc(N5CCNC(C)(C)C5)cc4)n[nH]c3n2)c1Cl", "note": "[3D185]", "values": [{"measurement": "inhibition at 0.01 µM", "setting": "Ret(V804M)(h); 10 nM", "value": -3, "unit": "%"}, {"measurement": "inhibition at 0.1 µM", "setting": "Ret(V804M)(h); 100 nM", "value": -2, "unit": "%"}, {"measurement": "inhibition at 1 µM", "setting": "Ret(V804M)(h); 1000 nM", "value": 56, "unit": "%"}, {"measurement": "inhibition at 0.01 µM", "setting": "SLK(h); 10 nM", "value": 10, "unit": "%"}, {"measurement": "inhibition at 0.1 µM", "setting": "SLK(h); 100 nM", "value": 34, "unit": "%"}, {"measurement": "inhibition at 1 µM", "setting": "SLK(h); 1000 nM", "value": 81, "unit": "%"}, {"measurement": "Inhibition rate (%)", "setting": "CK1(y); 10 nM", "value": -1, "unit": "%"}, {"measurement": "Inhibition rate (%)", "setting": "CK1(y); 100 nM", "value": 0, "unit": "%"}, {"measurement": "Inhibition rate (%)", "setting": "CK1(y); 1000 nM", "value": 2, "unit": "%"}, {"measurement": "inhibition at 0.01 µM", "setting": "SRPK2(h); 10 nM", "value": 2, "unit": "%"}, {"measurement": "inhibition at 0.1 µM", "setting": "SRPK2(h); 100 nM", "value": 2, "unit": "%"}, {"measurement": "inhibition at 1 µM", "setting": "SRPK2(h); 1000 nM", "value": -7, "unit": "%"}, {"measurement": "inhibition at 0.01 µM", "setting": "MARK4(h); 10 nM", "value": 3, "unit": "%"}, {"measurement": "inhibition at 0.1 µM", "setting": "MARK4(h); 100 nM", "value": 5, "unit": "%"}, {"measurement": "inhibition at 1 µM", "setting": "MARK4(h); 1000 nM", "value": -2, "unit": "%"}, {"measurement": "inhibition at 0.01 µM", "setting": "DYRK1A(h); 10 nM", "value": -4, "unit": "%"}, {"measurement": "inhibition at 0.1 µM", "setting": "DYRK1A(h); 100 nM", "value": 1, "unit": "%"}, {"measurement": "inhibition at 1 µM", "setting": "DYRK1A(h); 1000 nM", "value": 5, "unit": "%"}, {"measurement": "inhibition at 0.01 µM", "setting": "ALK(h); 10 nM", "value": -1, "unit": "%"}, {"measurement": "inhibition at 0.1 µM", "setting": "ALK(h); 100 nM", "value": 35, "unit": "%"}, {"measurement": "inhibition at 1 µM", "setting": "ALK(h); 1000 nM", "value": 82, "unit": "%"}, {"measurement": "inhibition at 0.01 µM", "setting": "TBK1(h); 10 nM", "value": -6, "unit": "%"}, {"measurement": "inhibition at 0.1 µM", "setting": "TBK1(h); 100 nM", "value": -2, "unit": "%"}, {"measurement": "inhibition at 1 µM", "setting": "TBK1(h); 1000 nM", "value": -1, "unit": "%"}, {"measurement": "inhibition at 0.01 µM", "setting": "STK32A(h); 10 nM", "value": -5, "unit": "%"}, {"measurement": "inhibition at 0.1 µM", "setting": "STK32A(h); 100 nM", "value": 0, "unit": "%"}, {"measurement": "inhibition at 1 µM", "setting": "STK32A(h); 1000 nM", "value": 2, "unit": "%"}, {"measurement": "inhibition at 0.01 µM", "setting": "CK1γ1(h); 10 nM", "value": 9, "unit": "%"}, {"measurement": "inhibition at 0.1 µM", "setting": "CK1γ1(h); 100 nM", "value": -4, "unit": "%"}, {"measurement": "inhibition at 1 µM", "setting": "CK1γ1(h); 1000 nM", "value": 2, "unit": "%"}, {"measurement": "inhibition at 0.01 µM", "setting": "Ret(h); 10 nM", "value": 8, "unit": "%"}, {"measurement": "inhibition at 0.1 µM", "setting": "Ret(h); 100 nM", "value": 27, "unit": "%"}, {"measurement": "inhibition at 1 µM", "setting": "Ret(h); 1000 nM", "value": 80, "unit": "%"}, {"measurement": "inhibition at 0.01 µM", "setting": "CaMKIIα(h); 10 nM", "value": -9, "unit": "%"}, {"measurement": "inhibition at 0.1 µM", "setting": "CaMKIIα(h); 100 nM", "value": 2, "unit": "%"}, {"measurement": "inhibition at 1 µM", "setting": "CaMKIIα(h); 1000 nM", "value": -15, "unit": "%"}, {"measurement": "inhibition at 0.01 µM", "setting": "NEK7(h); 10 nM", "value": 2, "unit": "%"}, {"measurement": "inhibition at 0.1 µM", "setting": "NEK7(h); 100 nM", "value": 1, "unit": "%"}, {"measurement": "inhibition at 1 µM", "setting": "NEK7(h); 1000 nM", "value": -1, "unit": "%"}, {"measurement": "inhibition at 0.01 µM", "setting": "ATR/ATRIP(h); 10 nM", "value": -4, "unit": "%"}, {"measurement": "inhibition at 0.1 µM", "setting": "ATR/ATRIP(h); 100 nM", "value": 10, "unit": "%"}, {"measurement": "inhibition at 1 µM", "setting": "ATR/ATRIP(h); 1000 nM", "value": 6, "unit": "%"}]}]}
